Earlier results in US10160778B2, “Pyrimidine phosphonic acid esters” (Concert Pharmaceuticals, Inc., priority 2014, dated 2018).

Settings: phase II study for the prevention of cytomegalovirus infection

SMILES: CCCCCCCCCCCCCCCCOCCCOP(=O)(O)CO[C@H](CO)Cn1ccc(N)nc1=O [brincidofovir, 3-(hexadecyloxy)propyl hydrogen ((((S)-1-(4-amino-2-oxopyrimidin-1 (2H)-yl)-3-hydroxypropan-2-yl)oxy)methyl)phosphonate]
- dose-limiting side effect: diarrhea
